Data taken from ChEMBL document CHEMBL1147488, “Methanesulfonamide group at position-4 of the C-5-phenyl ring of 1,5-diarylpyrazole affords a potent class of cyclooxygenase-2 (COX-2) inhibitors” (Bioorg Med Chem Lett, 2004).
pIC50: −log10 of the molar value.

Columns and labels:
[1] = biological target: T1, Prostaglandin G/H synthase 1 (Ovis aries) (UniProt P05979); settings: at 10 µM
T1 sequence (whole entry): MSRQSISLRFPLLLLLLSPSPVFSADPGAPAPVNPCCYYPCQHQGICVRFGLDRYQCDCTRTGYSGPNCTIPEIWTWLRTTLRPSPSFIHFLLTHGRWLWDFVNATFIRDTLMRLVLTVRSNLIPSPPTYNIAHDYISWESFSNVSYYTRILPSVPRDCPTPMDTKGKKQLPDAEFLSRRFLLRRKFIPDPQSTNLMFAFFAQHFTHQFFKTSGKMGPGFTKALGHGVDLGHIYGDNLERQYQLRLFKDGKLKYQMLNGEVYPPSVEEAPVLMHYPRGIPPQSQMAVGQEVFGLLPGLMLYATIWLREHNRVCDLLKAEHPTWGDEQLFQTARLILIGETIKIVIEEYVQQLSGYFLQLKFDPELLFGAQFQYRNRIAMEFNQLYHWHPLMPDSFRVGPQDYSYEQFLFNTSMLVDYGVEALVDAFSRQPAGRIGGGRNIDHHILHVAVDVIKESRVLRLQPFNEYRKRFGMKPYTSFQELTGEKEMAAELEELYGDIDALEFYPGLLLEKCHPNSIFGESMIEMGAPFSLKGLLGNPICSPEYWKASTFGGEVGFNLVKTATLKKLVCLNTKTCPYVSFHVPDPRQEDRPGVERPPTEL
Description: In vitro inhibitory activity against prostaglandin G/H synthase 1 (COX-1) from the microsomal fraction of ram seminal vesicles at 10 uM concentration

[2] = biological target: T2, Prostaglandin G/H synthase 2 (Homo sapiens) (UniProt P35354); settings: Sf9; at 10 µM;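 also: in vitro assay on recombinant human COX-2 produced in baculovirus-infected Sf9 insect cells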
T2 sequence (whole entry): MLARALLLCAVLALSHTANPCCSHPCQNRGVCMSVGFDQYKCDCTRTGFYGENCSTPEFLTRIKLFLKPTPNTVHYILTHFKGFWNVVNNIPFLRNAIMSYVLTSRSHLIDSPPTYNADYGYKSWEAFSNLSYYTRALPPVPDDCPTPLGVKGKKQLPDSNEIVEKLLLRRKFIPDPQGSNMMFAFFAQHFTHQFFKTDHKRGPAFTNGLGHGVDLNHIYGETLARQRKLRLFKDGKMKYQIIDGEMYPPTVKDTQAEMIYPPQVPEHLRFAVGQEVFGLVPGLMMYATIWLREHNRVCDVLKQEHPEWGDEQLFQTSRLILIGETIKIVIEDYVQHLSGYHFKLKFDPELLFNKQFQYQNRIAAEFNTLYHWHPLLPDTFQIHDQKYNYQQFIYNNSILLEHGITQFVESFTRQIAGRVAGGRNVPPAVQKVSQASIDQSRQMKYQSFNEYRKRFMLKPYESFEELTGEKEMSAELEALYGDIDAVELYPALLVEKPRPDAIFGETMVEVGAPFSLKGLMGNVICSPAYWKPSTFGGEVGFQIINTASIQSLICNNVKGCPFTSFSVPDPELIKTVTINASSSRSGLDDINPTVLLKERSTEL
Description: In vitro inhibitory activity against human recombinant prostaglandin G/H synthase 2 (COX-2) at 10 uM expressed in sf-9 cells infected with baculovirus

[3] = biological target: T3, Prostaglandin G/H synthase 1 (Ovis aries, UniProt P05979); assay: In vitro inhibitory activity against prostaglandin G/H synthase 1 from the microsomal fraction of ram seminal vesicles
T3 sequence (P05979 whole entry): T1 sequence (whole entry)

SMILES	inhibition [1] [%]	inhibition [2] [%]	pIC50 [3]
CCCC(=O)N(c1ccc(-c2cc(C(F)(F)F)nn2-c2ccc(Cl)cc2)cc1)S(C)(=O)=O	0	62	–
Cc1cc(-c2ccc(NS(C)(=O)=O)cc2)n(-c2ccc(Br)cc2)n1	10	100	4.20
CS(=O)(=O)Nc1ccc(-c2cc(C(F)(F)F)nn2-c2ccc(S(N)(=O)=O)cc2CO)cc1	42	12	–
CS(=O)(=O)Nc1ccc(-c2cc(C(F)(F)F)nn2-c2ccc([N+](=O)[O-])cc2)cc1	34	0	–
CS(=O)(=O)Nc1ccc(-c2cc(C(F)F)nn2-c2cccc(F)c2)cc1	97	67	–
CCC(=O)N(c1ccc(-c2cc(C(F)F)nn2-c2ccc(Cl)cc2)cc1)S(C)(=O)=O	100	36	–
CS(=O)(=O)Nc1ccc(-c2cc(C(F)(F)F)nn2-c2ccc(N)cc2)cc1	22	69	4.50
CN(C)c1ccc(-n2nc(C(F)(F)F)cc2-c2ccc(NS(C)(=O)=O)cc2)cc1	85	100	5.47
CC(=O)Nc1ccc(-c2cc(C)nn2-c2ccc(Br)cc2)cc1	9	80	4.88
CS(=O)(=O)Nc1ccc(-c2cc(C(F)F)nn2-c2ccccc2F)cc1	90	89	–
Cc1cc(-c2ccc(NS(C)(=O)=O)cc2)n(-c2ccccc2)n1	34	7	–
CS(=O)(=O)Nc1ccc(-c2cc(C(F)F)nn2-c2ccc(F)cc2)cc1	22	62	–
CS(=O)(=O)Nc1ccc(-c2cc(C(F)(F)F)nn2-c2ccccc2)cc1	0	100	4.07
CC(=O)N(c1ccc(-c2cc(C(F)(F)F)nn2-c2ccc(Cl)cc2)cc1)S(C)(=O)=O	0	63	–
CS(=O)(=O)N(c1ccc(-c2cc(C(F)(F)F)nn2-c2ccc(Cl)cc2)cc1)S(C)(=O)=O	14	13	–
Cc1cc(-c2ccc(NS(C)(=O)=O)cc2)n(-c2ccc([N+](=O)[O-])cc2)n1	40	0	–
CS(=O)(=O)Nc1ccc(-c2cc(C(F)F)nn2-c2ccc(F)c(F)c2)cc1	11	36	–
CS(=O)(=O)Nc1ccc(-c2cc(C(F)F)nn2-c2ccc(S(N)(=O)=O)cc2CO)cc1	100	0	–
CS(=O)(=O)Nc1ccc(-c2cc(C(F)(F)F)nn2-c2cccc(F)c2)cc1	49	70	–

The remaining lines, values ahead:

inhibition [1] [%]	inhibition [2] [%]	pIC50 [3]	SMILES
18	65	–	CCC(=O)N(c1ccc(-c2cc(C(F)(F)F)nn2-c2ccc(Cl)cc2)cc1)S(C)(=O)=O
0	25	–	Cc1cc(-c2ccc(NS(C)(=O)=O)cc2)n(-c2ccc(F)cc2)n1
0	13	–	CS(=O)(=O)Nc1ccc(-c2cc(C(F)(F)F)nn2-c2ccc([N+](=O)[O-])cn2)cc1
0	70	–	Cc1ccc(S(=O)(=O)Nc2ccc(-c3cc(C(F)(F)F)nn3-c3ccc(Cl)cc3)cc2)cc1
96	3	–	CS(=O)(=O)Nc1ccc(-c2cc(C(F)(F)F)nn2-c2cccc(Cl)c2)cc1
6	65	4.69	CS(=O)(=O)Nc1ccc(-c2cc(C(F)(F)F)nn2-c2ccc(F)cc2)cc1
66	17	–	CC(=O)N(c1ccc(-c2cc(C(F)F)nn2-c2ccc(Cl)cc2)cc1)S(C)(=O)=O
59	0	–	CC(=O)Nc1ccc(-c2cc(C(F)(F)F)nn2-c2ccc(S(N)(=O)=O)cc2CO)cc1
14	42	–	CNc1ccc(-n2nc(C(F)(F)F)cc2-c2ccc(NS(C)(=O)=O)cc2)cc1
88	100	5.31	CS(=O)(=O)Nc1ccc(-c2cc(C(F)(F)F)nn2-c2ccc(Br)cc2)cc1
10	70	–	CS(=O)(=O)Nc1ccc(-c2cc(C(F)(F)F)nn2-c2ccc(Cl)c(Cl)c2)cc1
0	13	–	Cc1cc(-c2ccc(NS(C)(=O)=O)cc2)n(-c2ccc([N+](=O)[O-])cn2)n1
22	31	–	CS(=O)(=O)Nc1ccc(-c2cc(C(F)F)nn2-c2ccccc2)cc1
25	100	4.81	CS(=O)(=O)Nc1ccc(-c2cc(C(F)(F)F)nn2-c2ccc(Cl)cc2)cc1
0	88	4.00	Cc1cc(-c2ccc(NS(C)(=O)=O)cc2)n(-c2ccc(Cl)cc2)n1
0	100	4.20	CS(=O)(=O)Nc1ccc(-c2cc(C(F)F)nn2-c2ccc(Cl)cc2)cc1
100	42	–	CCCC(=O)N(c1ccc(-c2cc(C(F)F)nn2-c2ccc(Cl)cc2)cc1)S(C)(=O)=O
43	71	–	CS(=O)(=O)Nc1ccc(-c2cc(C(F)F)nn2-c2ccc(Cl)c(Cl)c2)cc1
100	87	5.46	CC(=O)Nc1ccc(-c2cc(C(F)(F)F)nn2-c2ccc(Br)cc2)cc1
66	22	–	CS(=O)(=O)Nc1ccc(-c2cc(C(F)F)nn2-c2ccccc2Cl)cc1
32	59	–	CS(=O)(=O)Nc1ccc(-c2cc(C(F)(F)F)nn2-c2ccc(F)c(F)c2)cc1
97	89	–	CS(=O)(=O)Nc1ccc(-c2cc(C(F)(F)F)nn2-c2ccccc2F)cc1
